{"source": "the NIST ThermoML archive (doi:10.1016/j.jct.2015.10.016)", "key": {"[1]": {"settings": "Crystal; DTA"}, "[2]": {"experiment": "Molar enthalpy of transition or fusion", "settings": "Crystal; DSC"}}, "note": "Numbers after ± are expanded uncertainties."}
{"molecule": "O=C(NC[C@H]1CN(c2ccc(N3CCOCC3=O)cc2)C(=O)O1)c1ccc(Cl)s1", "note": "[Rivaroxaban]", "values": [{"measurement": "Normal melting temperature", "setting": "[1]", "value": "235.40 ± 1.1", "unit": "°C"}, {"measurement": "Molar enthalpy of transition or fusion", "setting": "[2]", "value": "11.2 ± 0.502", "unit": "kcal/mol"}]}
